Data from US8513182B2, “Natural polypeptides for oral health care” (priority 2007, dated 2013).
Like-named read-outs stand apart in the source and are kept apart here. Ends that are not written are not given here.

Experiments:
Streptococcus mutans [1] = assay: disk diffusion assay on confluent S. mutans culture; format: cell-based; settings: for antibacterial activity (zone of inhibition) against S. mutans: FIG. 4, lactoferrin, statherin and fusion peptides on disk
From the text: In all panels the circle is a filter paper disk impregnated with different agents (PBS=phosphate buffered saline which is a control); LF “R”=the 11 mer of lactoferrin with arginine (R) in amino acid position 29; LF “K” the 11 mer of lactoferrin with lysine (K) in amino acid position 29. The disk containing a standard concentration of one of the agents is placed over a confluent culture of Streptococcus mutans.
In all panels the circle is a disk impregnated with different agents. The disk is placed over a confluent culture of Streptococcus mutans. […] Panel top left: Lactoferrin (timer) where the lysine is present. […] Middle and top right panel are the two statherin peptides, a 6 mer and a 15 mer. […] Panel bottom left: lactoferrin 11 mer noted as LF fused to the Statherin 6 mer. […] Panel bottom right: Lactoferrin 11 mer noted as LF fused to Statherin 15 mer. […] The two panels on the bottom show the level of interference when the LF is added to the two Statherins. The activity of the LF when the smaller Statherin peptide is fused to it is greater as compared to when the larger peptide is fused to the LF.
The first was a disk diffusion screening assay we developed in our laboratory. In that assay we grew an overnight culture of S. mutans in a broth consisting of trypticase soy and 20% sucrose added. Cells were grown overnight and then streaked to confluence on Mitis Salivarius Bacitracin (MSB) agar. In addition we took a 25 cm sterile filter paper disk and added 200 ul of either whole saliva, the saliva containing the lysine or the arginine variant of lactoferrin, allowed this saliva to dry onto the filter paper for 1 hour and then placed the filter paper containing the added protein over the center of the confluent culture of S. mutans on the MSB agar. […] This assay was used to screen for potential antimicrobial activity.
The disk diffusion assay allows for specific proteins to be added to a filter paper disk whereby the protein can then diffuse into the agar to determine antimicrobial activity. The following peptides were added to the disk; R=arginine form of Lf (FIG. 1(a)). K=lysine form of Lf (FIG. 1(a). PBS=phosphate buffered saline which is used as the control solution and to which is added either the R form or K form of Lf. In FIG. 1 below we added R form, or the K form at a concentration of 1 ug/ml to 200 ul of PBS and then added that to the surface of a 25 cm filter paper strip and allowed the strip to dry for 1 hour. We then streaked a culture of S. mutans to confluence onto a plate of trypicase soy agar containing 20% sucrose and then placed the dried disk over the center of the plate. The cultures were allowed to grow in an incubator set at 37° C. and then evaluated either at 24 or 48 hours after inoculation. […] No zone was seen on disk R/PBS or R/Saliva, where the arginine variant was substituted for the lysine variant (FIG. 3). The R and K Form of LF peptide was added at a concentration of about 15 ug/ml.

S. mutans = settings: literature (Gibbons and Hay 1989; Shimotoyodeme et al 2006), cited from earlier work
Streptococcus mutans [2] = assay: killing of Streptococcus mutans by synthetic lactoferrin peptide; format: cell-based
bacterial plaque = settings: in vitro and in vivo; cited from earlier work
oral bacteria = settings: bacteria grown in a broth media, in-vitro; cited from earlier work
bacteria adhering to SHA = settings: SHA treated with drug, washed, placed in a culture of bacteria; cited from earlier work

## ST6: statherin peptide, a 6 mer (DSSEEK; ends and bridges not checked; UniProt P02808 20-25, looked up, fragment)
Streptococcus mutans [1]
  antibacterial activity (zone of inhibition) against S. mutans: do not have any antimicrobial activity
Streptococcus mutans [1]; listed as Statherin 6 mer
  antibacterial activity (zone of inhibition) against S. mutans: no zone of inhibition
S. mutans
  S. mutans attachment / binding to the tooth surface: also has this capacity

## Statherin: small salivary tyrosine-rich phosphoprotein containing 43 amino acids (DSSEEKFLRRIGRFGYGYGPYQPVPEQPLYPQPYQPQYQQYTF; also: phosphoprotein, sites not given here; UniProt P02808 20-62, looked up)
S. mutans
  S. mutans attachment / binding to the tooth surface: reduce S. mutans binding to the tooth surface
S. mutans; listed as statherin
  S. mutans attachment / binding to the tooth surface: inhibit S. mutans attachment

## LF “K”: the 11 mer of lactoferrin with lysine (K) in amino acid position 29 (FQWQRNMRKVR; Active form of synthetic peptide LF11 based on human lactoferrin peptide)
Streptococcus mutans [1]; FIG. 3, peptide in PBS dried on filter paper disk, 37° C., 24 or 48 hours, listed as K
  zone of inhibition of S. mutans growth around disk: zone of inhibition
Streptococcus mutans [1]; FIG. 3, peptide in PBS dried on filter paper disk, 37° C., 24 or 48 hours, listed as lysine variant of Lactoferrin
  zone of inhibition of S. mutans growth around disk: clear zone
Streptococcus mutans [1]
  antibacterial activity (zone of inhibition) against S. mutans: inhibits the growth of S. mutans
Streptococcus mutans [1]; peptide suspended in normal saliva, dried on filter paper disk
  zone of inhibition of S. mutans growth around disk: zone of inhibition
Streptococcus mutans [2]
  killing of Streptococcus mutans: kills Streptococcus mutans

## [H]/N=C(\N/C(=N/[H])NCCCCCCNC(=N)NC(=N)Nc1ccc(Cl)cc1)Nc1ccc(Cl)cc1 [chlorhexidine]
Bacterial plaque
  bacterial plaque attachment to teeth: reduce bacterial plaque attachment to teeth

## STAT-LF 6: fusion protein: lactoferrin 11 mer (LF) fused to the Statherin 6 mer (DDDEEKFQWQRNMRKVR; Synthetic fusion peptide STAT-LF6)
Streptococcus mutans [1]; listed as LF and the Statherin 6 mer
  antibacterial activity (zone of inhibition) against S. mutans: most active fusion peptide
Streptococcus mutans [1]; listed as LF fused to the Statherin 6
  antibacterial activity (zone of inhibition) against S. mutans: retains the activity of the Lactoferrin 11 mer
Streptococcus mutans [1]; listed as LF fused to the Statherin 6 mer
  antibacterial activity (zone of inhibition) against S. mutans: retains the activity of the Lactoferrin 11 mer

## Penicillin
Oral bacteria
  concentration effective against oral bacteria: 1 µg/mL
Bacteria adhering to SHA
  adherence of bacteria to treated SHA: no effect
